Measurements published in ChEMBL document CHEMBL1127581, “Evolution of a novel series of [(N,N-dimethylamino)propyl]- and piperazinylbenzanilides as the first selective 5-HT1D antagonists” (J Med Chem, 1994).

Key:
[1] = biological target: T1, Adrenergic receptor alpha-2 (Homo sapiens, UniProt P08913+P18825+P18089); assay: Binding affinity against alpha-2 adrenoceptor; type: protein assay
T1 sequence (P08913 whole entry): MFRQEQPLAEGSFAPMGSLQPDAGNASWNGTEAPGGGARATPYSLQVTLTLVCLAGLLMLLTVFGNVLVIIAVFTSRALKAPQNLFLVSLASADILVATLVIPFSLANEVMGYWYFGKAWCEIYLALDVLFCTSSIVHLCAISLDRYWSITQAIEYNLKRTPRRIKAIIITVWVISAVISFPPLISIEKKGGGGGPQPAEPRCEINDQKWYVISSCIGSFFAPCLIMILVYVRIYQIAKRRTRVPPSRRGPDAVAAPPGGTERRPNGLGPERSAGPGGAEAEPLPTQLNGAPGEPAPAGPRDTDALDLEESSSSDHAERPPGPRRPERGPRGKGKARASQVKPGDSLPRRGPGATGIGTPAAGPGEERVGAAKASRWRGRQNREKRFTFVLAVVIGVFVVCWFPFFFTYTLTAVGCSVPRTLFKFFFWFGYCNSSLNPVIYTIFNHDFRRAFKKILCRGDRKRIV
T1 sequence (P18825 whole entry): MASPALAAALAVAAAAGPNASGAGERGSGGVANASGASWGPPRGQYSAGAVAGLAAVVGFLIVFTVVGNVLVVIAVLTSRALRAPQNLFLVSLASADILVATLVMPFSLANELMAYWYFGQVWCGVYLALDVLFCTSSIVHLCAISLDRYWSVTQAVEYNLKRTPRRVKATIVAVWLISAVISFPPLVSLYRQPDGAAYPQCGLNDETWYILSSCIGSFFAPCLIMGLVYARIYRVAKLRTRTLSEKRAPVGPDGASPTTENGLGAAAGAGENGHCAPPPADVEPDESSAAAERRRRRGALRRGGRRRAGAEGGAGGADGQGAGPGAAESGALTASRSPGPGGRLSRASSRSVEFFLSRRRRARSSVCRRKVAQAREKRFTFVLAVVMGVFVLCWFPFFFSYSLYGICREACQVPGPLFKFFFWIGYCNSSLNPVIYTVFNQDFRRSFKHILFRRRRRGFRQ
T1 sequence (P18089 whole entry): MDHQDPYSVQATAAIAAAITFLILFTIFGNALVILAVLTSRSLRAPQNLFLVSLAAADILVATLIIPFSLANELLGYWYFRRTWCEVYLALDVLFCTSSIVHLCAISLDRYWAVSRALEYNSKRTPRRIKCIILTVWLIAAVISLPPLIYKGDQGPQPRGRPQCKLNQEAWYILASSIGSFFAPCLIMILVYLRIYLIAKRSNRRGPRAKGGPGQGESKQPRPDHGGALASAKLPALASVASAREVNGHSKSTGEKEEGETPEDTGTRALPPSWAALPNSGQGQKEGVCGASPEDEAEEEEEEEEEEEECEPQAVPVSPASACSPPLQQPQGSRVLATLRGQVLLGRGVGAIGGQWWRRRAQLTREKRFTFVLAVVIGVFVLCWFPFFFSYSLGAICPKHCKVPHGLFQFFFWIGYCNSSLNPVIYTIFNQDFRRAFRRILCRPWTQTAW

D(2) dopamine receptor = D(2) dopamine receptor (Homo sapiens, UniProt P14416); assay: Binding affinity against dopamine D2 receptor
[2] = biological target: Muscarinic acetylcholine receptor M3 (Homo sapiens, UniProt P20309); assay: Binding affinity against muscarinic M3 receptor
Canis familiaris = species on record: Canis familiaris; details: Canis lupus familiaris; Saphenous vein; filed as antagonist
[3] = biological target: 5-hydroxytryptamine receptor 4 (Homo sapiens, UniProt Q13639); assay: Binding affinity against 5-hydroxytryptamine 4 receptor
D(3) dopamine receptor = D(3) dopamine receptor (Homo sapiens, UniProt P35462); assay: Binding affinity against dopamine D3 receptor
[4] = biological target: Serotonin 3 (5-HT3) receptor; assay: Binding affinity against the 5-hydroxytryptamine 3 receptor; type: protein-complex assay
[5] = biological target: T2, 5-hydroxytryptamine receptor 1A (Rattus norvegicus, UniProt P19327); assay: Binding affinity towards 5-hydroxytryptamine 1A receptor in rat hippocampus with [3H]8-OH-DPAT; type: tissue-based
T2 sequence (P19327 whole entry): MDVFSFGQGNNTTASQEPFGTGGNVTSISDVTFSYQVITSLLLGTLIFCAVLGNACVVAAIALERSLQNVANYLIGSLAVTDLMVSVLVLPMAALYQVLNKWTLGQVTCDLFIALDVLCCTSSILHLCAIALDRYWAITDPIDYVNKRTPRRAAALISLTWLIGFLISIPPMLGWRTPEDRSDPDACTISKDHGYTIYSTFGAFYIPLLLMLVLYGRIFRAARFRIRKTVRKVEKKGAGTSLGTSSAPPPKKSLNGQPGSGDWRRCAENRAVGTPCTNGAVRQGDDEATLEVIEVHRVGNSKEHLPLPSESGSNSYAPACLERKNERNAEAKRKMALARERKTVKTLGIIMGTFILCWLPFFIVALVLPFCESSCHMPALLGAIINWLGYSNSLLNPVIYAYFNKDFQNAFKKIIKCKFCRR

D(1A) dopamine receptor = D(1A) dopamine receptor (Homo sapiens, UniProt P21728); assay: Binding affinity against dopamine receptor D1
[6] = biological target: 5-hydroxytryptamine receptor 1D (Cavia porcellus) (UniProt Q60484); assay: Oral effective dose against hypothermia in the guinea pig caused by stimulation of central 5-hydroxytryptamine 1D receptors by the agonist GR-46611;range is 0.2-0.4; type: functional
[7] = biological target: 5-hydroxytryptamine receptor 1B (Rattus norvegicus, UniProt P28564); assay: In vitro binding affinity towards 5-hydroxytryptamine 1B receptor in rat striatal membrane with [125I]- iodocyanopindolol; type: cell membranes, Striatum
[8] = biological target: T3, Muscarinic acetylcholine receptor M1 (Homo sapiens, UniProt P11229); assay: Binding affinity against muscarinic M1 receptor
T3 sequence (P11229 whole entry): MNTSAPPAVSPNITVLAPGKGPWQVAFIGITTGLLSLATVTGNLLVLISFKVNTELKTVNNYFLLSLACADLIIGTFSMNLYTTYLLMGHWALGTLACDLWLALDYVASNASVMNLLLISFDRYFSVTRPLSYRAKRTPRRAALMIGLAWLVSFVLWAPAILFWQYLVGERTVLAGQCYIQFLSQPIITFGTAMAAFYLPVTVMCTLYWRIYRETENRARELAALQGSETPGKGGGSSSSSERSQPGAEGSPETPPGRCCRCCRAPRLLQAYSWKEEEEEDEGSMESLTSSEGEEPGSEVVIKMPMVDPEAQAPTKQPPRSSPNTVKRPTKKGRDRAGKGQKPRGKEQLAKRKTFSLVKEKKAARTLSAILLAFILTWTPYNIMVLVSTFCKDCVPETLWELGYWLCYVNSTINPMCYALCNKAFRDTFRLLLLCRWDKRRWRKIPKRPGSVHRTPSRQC

Chain of 5-hydroxytryptamine receptor 1B (P28564 whole entry): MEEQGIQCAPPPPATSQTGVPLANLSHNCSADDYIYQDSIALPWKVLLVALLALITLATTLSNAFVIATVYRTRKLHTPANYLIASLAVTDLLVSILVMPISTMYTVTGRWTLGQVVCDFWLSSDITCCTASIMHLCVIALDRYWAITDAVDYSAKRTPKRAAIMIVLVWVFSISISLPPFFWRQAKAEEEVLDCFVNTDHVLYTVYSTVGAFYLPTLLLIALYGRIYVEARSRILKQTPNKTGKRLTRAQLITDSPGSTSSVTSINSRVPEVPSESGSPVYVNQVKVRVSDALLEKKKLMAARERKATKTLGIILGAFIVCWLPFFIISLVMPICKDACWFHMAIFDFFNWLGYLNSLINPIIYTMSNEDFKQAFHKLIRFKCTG
Chain of Muscarinic acetylcholine receptor M3 (P20309 whole entry): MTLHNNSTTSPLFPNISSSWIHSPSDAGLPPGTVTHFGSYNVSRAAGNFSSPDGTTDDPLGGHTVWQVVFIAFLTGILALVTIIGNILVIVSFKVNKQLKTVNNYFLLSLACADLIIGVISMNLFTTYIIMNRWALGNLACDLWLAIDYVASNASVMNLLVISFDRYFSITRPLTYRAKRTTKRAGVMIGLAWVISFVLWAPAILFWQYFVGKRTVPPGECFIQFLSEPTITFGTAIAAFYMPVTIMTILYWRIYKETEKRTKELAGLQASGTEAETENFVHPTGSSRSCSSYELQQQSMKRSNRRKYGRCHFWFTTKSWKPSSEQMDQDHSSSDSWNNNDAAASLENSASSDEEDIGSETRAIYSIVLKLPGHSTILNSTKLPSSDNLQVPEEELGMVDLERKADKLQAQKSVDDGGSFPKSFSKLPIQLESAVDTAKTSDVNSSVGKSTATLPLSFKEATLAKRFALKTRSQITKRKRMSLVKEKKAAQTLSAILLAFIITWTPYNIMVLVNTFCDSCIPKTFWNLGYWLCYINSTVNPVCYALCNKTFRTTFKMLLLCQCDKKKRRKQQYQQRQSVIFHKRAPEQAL
Chain of D(3) dopamine receptor (P35462 whole entry): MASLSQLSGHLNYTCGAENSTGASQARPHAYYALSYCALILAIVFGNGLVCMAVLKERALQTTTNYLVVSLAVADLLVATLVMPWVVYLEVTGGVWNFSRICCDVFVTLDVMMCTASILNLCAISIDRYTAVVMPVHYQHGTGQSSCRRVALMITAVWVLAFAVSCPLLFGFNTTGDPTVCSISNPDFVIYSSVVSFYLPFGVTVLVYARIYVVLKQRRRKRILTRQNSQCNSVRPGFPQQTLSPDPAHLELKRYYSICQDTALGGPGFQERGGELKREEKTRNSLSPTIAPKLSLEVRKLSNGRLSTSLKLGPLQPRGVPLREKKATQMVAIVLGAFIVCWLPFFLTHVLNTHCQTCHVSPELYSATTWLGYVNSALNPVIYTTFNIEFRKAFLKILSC
Chain of 5-hydroxytryptamine receptor 4 (Q13639 whole entry): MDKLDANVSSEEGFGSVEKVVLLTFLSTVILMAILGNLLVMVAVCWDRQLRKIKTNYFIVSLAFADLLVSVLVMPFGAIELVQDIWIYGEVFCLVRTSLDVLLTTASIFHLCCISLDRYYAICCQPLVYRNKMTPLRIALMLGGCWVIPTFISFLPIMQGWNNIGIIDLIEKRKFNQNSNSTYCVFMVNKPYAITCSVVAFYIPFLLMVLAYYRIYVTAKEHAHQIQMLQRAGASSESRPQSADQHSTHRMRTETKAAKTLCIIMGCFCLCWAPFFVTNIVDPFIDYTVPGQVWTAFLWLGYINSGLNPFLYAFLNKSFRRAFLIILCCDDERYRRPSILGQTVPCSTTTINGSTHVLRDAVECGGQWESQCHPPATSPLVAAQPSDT
Chain of 5-hydroxytryptamine receptor 1D (Cavia porcellus) (Q60484 whole entry): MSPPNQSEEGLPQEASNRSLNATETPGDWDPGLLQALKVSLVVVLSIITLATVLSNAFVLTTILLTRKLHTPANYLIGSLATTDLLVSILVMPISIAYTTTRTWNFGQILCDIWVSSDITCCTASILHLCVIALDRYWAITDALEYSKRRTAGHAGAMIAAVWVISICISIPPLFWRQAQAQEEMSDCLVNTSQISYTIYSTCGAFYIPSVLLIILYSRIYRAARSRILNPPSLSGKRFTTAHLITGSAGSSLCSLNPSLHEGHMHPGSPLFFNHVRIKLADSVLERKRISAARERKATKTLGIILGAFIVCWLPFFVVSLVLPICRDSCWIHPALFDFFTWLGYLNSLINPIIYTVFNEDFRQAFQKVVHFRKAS
Chain of D(2) dopamine receptor (P14416 whole entry): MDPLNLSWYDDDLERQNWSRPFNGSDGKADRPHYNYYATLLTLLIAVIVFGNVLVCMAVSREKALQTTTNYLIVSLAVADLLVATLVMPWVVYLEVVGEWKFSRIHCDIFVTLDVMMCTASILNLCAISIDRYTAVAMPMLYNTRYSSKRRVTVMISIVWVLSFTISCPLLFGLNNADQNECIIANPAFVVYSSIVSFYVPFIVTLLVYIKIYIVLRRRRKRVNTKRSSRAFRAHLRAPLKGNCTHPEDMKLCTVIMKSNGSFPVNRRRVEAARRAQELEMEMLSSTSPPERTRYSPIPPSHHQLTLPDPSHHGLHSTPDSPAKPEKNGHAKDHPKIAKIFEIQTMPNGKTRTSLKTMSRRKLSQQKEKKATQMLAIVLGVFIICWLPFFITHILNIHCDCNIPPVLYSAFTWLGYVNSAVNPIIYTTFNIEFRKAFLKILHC
Chain of D(1A) dopamine receptor (P21728 whole entry): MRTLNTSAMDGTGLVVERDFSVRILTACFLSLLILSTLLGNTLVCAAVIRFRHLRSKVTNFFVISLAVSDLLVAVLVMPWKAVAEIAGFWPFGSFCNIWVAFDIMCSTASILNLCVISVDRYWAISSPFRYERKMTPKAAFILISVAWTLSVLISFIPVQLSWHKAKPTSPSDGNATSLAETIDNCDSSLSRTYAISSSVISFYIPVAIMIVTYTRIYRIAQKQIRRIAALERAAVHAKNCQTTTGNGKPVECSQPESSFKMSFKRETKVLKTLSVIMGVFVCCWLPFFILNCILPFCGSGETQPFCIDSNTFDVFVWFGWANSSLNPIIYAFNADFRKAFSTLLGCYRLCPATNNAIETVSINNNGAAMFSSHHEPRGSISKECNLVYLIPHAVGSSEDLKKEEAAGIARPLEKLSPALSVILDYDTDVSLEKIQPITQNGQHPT

- Log Ki [1]: > -6
- Ki (D(2) dopamine receptor): > 10000 nM
- Ki [2]: > 1000 nM
- Ki [3]: > 10000 nM
- Ki (D(3) dopamine receptor): > 10000 nM
- Log Ki [4]: -5.2
- Ki [5]: 316 nM
- Ki (D(1A) dopamine receptor): > 10000 nM
- ED50 [6]: 0.3 mg/kg
- Ki [7]: 3.16 nM
- Ki [8]: > 1000 nM
Compound: COc1ccc(NC(=O)c2ccc(-c3ccc(-c4noc(C)n4)cc3C)cc2)cc1N1CCN(C)CC1 [GR-127935]
- pKB (Canis familiaris): Antagonist
